Among the data in patent publication US10471046B2, “Method for treating, preventing, or reducing the risk of skin infection” (Melinta Subsidiary Corp., priority 2014, dated 2019) are MIC values, retold here.

The test system of this assay is S. aureus. Briefly: Minimum inhibitory concentrations (MICs) for S. aureus of exemplary compounds (Table 2). It counts as cell-based. The settings on record: Staphylococcus aureus, read-out: MICs. In outline:
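MICs (μg/mL) against S. aureus come from microtiter-tray dilution susceptibility testing per NCCLS M7-A5, comparing growth with and without compound.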

Setting [1] is: minimum inhibitory concentrations for S. aureus.

Each structure is given as a SMILES string. Values after ≈ are worked out from the molar mass of the structure shown. Where two headings read alike, the source gives them in different places.

For the compound `CCOC(=O)c1c[nH]c(SCCNCc2ccc(-c3ccc(N4C[C@H](CNC(C)=O)OC4=O)cc3F)cc2)n1` [Compound 5010, 2-[2-({4′-[5-(S)-(Acetylamino-methyl)-2-oxo-oxazolidin-3-yl]-2′-fluoro-biphenyl-4-ylmethyl}-amino)-ethylsulfanyl]-1H-imidazole-4-carboxylic acid ethyl ester], the MIC under setting [1] was determined as 4 µg/mL (≈ 7.2 µM).

In the case of `CC(=O)NC[C@H]1CN(c2ccc(-c3ccc(CS(=O)(=O)c4nnnn4C)cc3)c(F)c2)C(=O)O1` [Compound 2024, N-{3-[2-Fluoro-4′-(1-methyl-1H-tetrazole-5-sulfonylmethyl)-biphenyl-4-yl]-2-oxo-oxazolidin-5-(S)-ylmethyl}-acetamide], the MIC under setting [1] is 0.25 µg/mL (≈ 0.512 µM). For `CC(=O)NC[C@H]1CN(c2ccc(-c3ccc(Cn4cnc(CO)c4)cc3)c(F)c2)C(=O)O1` [Compound 1050, N-{3-[2-Fluoro-4′-(4-hydroxymethyl-imidazol-1-ylmethyl)-biphenyl-4-yl]-2-oxo-oxazolidin-5-(S)-ylmethyl}-acetamide], the MIC under setting [1] was 2 µg/mL (≈ 4.56 µM). Still for that read-out and setting: for `CC(=O)NC[C@H]1CN(c2ccc(-c3ccc(CNC(=O)c4ccnc5ccccc45)cc3)c(F)c2)C(=O)O1` [Compound 4008, Quinoline-4-carboxylic acid {4′-[5-(S)-(acetylamino-methyl)-2-oxo-oxazolidin-3-yl]-2′-fluoro-biphenyl-4-ylmethyl}-amide] the value was 1 µg/mL (≈ 1.95 µM). Consider `CC(=O)NC[C@H]1CN(c2ccc(-c3ccc(Cn4ccc(N)n4)cc3)c(F)c2)C(=O)O1` [Compound 1053, N-{3-[4′-(3-Amino-pyrazol-1-ylmethyl)-2-fluoro-biphenyl-4-yl]-2-oxo-oxazolidin-5-(S)-ylmethyl}-acetamide], for which the MIC under setting [1] worked out at 1 µg/mL (≈ 2.36 µM). Regarding `CC(=O)NC[C@H]1CN(c2ccc(-c3ccc(CNC(=O)/C=C/c4c(C)[nH]c(=O)[nH]c4=O)cc3)c(F)c2)C(=O)O1` [Compound 4001, N-{4′-[5-(S)-(Acetylamino-methyl)-2-oxo-oxazolidin-3-yl]-2′-fluoro-biphenyl-4-ylmethyl}-3-(6-methyl-2,4-dioxo-1,2,3,4-tetrahydro-pyrimidin-5-yl)-acrylamide], under setting [1], the MIC worked out at 0.25 µg/mL (≈ 0.467 µM). The same measure, in the same setting: next, `CC(=O)NC[C@H]1CN(c2ccc(-c3ccc(CNCc4nnnn4C)cc3)c(F)c2)C(=O)O1` [Compound 4283, N-[3-(2-Fluoro-4′-{[(1-methyl-1H-tetrazol-5-ylmethyl)-amino]-methyl}-biphenyl-4-yl)-2-oxo-oxazolidin-5-(S)-ylmethyl]-acetamide]: 0.25 µg/mL (≈ 0.551 µM); `CC(=O)NC[C@H]1CN(c2ccc(-c3ccc(COCc4ccccn4)cc3)c(F)c2)C(=O)O1` [Compound 4192, N-{3-[2-Fluoro-4′-(pyridin-2-ylmethoxymethyl)-biphenyl-4-yl]-2-oxo-oxazolidin-5-(S)-ylmethyl}-acetamide]: 1 µg/mL (≈ 2.22 µM). For the compound `CC(=O)NC[C@H]1CN(c2ccc(-c3ccc(CNCc4nccs4)c(F)c3)c(F)c2)C(=O)O1` [Compound 4154, N-[3-(2,3′-Difluoro-4′-{[(thiazol-2-ylmethyl)-amino]-methyl}-biphenyl-4-yl)-2-oxo-oxazolidin-5-(S)-ylmethyl]-acetamide], under setting [1], the MIC was found to be 1 µg/mL (≈ 2.12 µM). For `CC(=O)NC[C@H]1CN(c2ccc(-c3ccc(Cn4cccc4)cc3)c(F)c2)C(=O)O1` [Compound 1054, N-[3-(2-Fluoro-4′-pyrrol-1-ylmethyl-biphenyl-4-yl)-2-oxo-oxazolidin-5-(S)-ylmethyl]-acetamide], the MIC under setting [1] came to 0.5 µg/mL (≈ 1.23 µM). Still for that read-out and setting: for `CC(=O)NC[C@H]1CN(c2ccc(-c3ccc([C@H](O)CNCc4ccccc4)cc3)c(F)c2)C(=O)O1` [Compound 4246, N-{3-[4′-(2-Benzylamino-1-(S)-hydroxy-ethyl)-2-fluoro-biphenyl-4-yl]-2-oxo-oxazolidin-5-(S)-ylmethyl}-acetamide] the value was 4 µg/mL (≈ 8.38 µM). With `CC(=O)NC[C@H]1CN(c2ccc(-c3ccc(CSc4nnnn4C)cc3)c(F)c2)C(=O)O1` [Compound 2015, N-{3-[2-Fluoro-4′-(1-methyl-1H-tetrazol-5-ylsulfanylmethyl)-biphenyl-4-yl]-2-oxo-oxazolidin-5-(S)-ylmethyl}-acetamide], the MIC under setting [1] is 0.25 µg/mL (≈ 0.548 µM). As for `CC(=O)NC[C@H]1CN(c2ccc(-c3ccc(CNc4nc(CNC(=O)[C@H](C)N)ns4)cc3)c(F)c2)C(=O)O1` [Compound 2013, N-[5-({4′[5-(S)-(Acetylamino-methyl)-2-oxo-oxazolidin-3-yl]-2′-fluoro-biphenyl-4-ylmethyl}-amino)-[1,2,4]thiadiazol-3-ylmethyl]-2-(S)-amino-propionamide], the MIC under setting [1] was found to be 1 µg/mL (≈ 1.85 µM). In the case of `CC(=O)NC[C@H]1CN(c2ccc(-c3ccc(CNCc4c[nH]nc4-c4cccs4)cc3)c(F)c2)C(=O)O1` [Compound 4127, N-[3-(2-Fluoro-4′-{[(3-thiophen-2-yl-1H-pyrazol-4-ylmethyl)-amino]-methyl}-biphenyl-4-yl)-2-oxo-oxazolidin-5-(S)-ylmethyl]-acetamide], under setting [1], the MIC came to 0.5 µg/mL (≈ 0.962 µM). The same measure, in the same setting: next, `CC(=O)NC[C@H]1CN(c2ccc(-c3ccc([C@@H](O)CNCc4ccncc4)cc3)c(F)c2)C(=O)O1` [Compound 4201, N-[3-(2-Fluoro-4′-{1-(R)-hydroxy-2-[(pyridin-4-ylmethyl)-amino]-ethyl}-biphenyl-4-yl)-2-oxo-oxazolidin-5-(S)-ylmethyl]-acetamide]: 2 µg/mL (≈ 4.18 µM); `CC(=O)NC[C@H]1CN(c2cc(F)c(-c3ccc(Cn4cnnn4)cc3)c(F)c2)C(=O)O1` [Compound 1048, N-[3-(2,6-Difluoro-4′-tetrazol-1-ylmethyl-biphenyl-4-yl)-2-oxo-oxazolidin-5-(S)-ylmethyl]-acetamide]: 1 µg/mL (≈ 2.33 µM); `CC(=O)NC[C@H]1CN(c2ccc(-c3ccc(CNC(=O)c4cccc(S(C)(=O)=O)c4)cc3)c(F)c2)C(=O)O1` [Compound 4012, N-{4′-[5-(S)-(Acetylamino-methyl)-2-oxo-oxazolidin-3-yl]-2′-fluoro-biphenyl-4-ylmethyl}-3-methanesulfonyl-benzamide]: 4 µg/mL (≈ 7.41 µM). As for `CC(=O)NC[C@H]1CN(c2ccc(-c3ccc(CSc4ncc[nH]4)cc3)c(F)c2)C(=O)O1` [Compound 2032, N-{3-[2-Fluoro-4′-(1H-imidazol-2-ylsulfanylmethyl)-biphenyl-4-yl]-2-oxo-oxazolidin-5-(S)-ylmethyl}-acetamide], the MIC under setting [1] turned out to be 1 µg/mL (≈ 2.27 µM). For `CC(=O)NC[C@H]1CN(c2ccc(-c3ccc(C[S+]([O-])c4nnnn4C)cc3)c(F)c2)C(=O)O1` (stereo partly drawn) [Compound 2020, N-{3-[2-Fluoro-4′-(1-methyl-1H-tetrazole-5-sulfinylmethyl)-biphenyl-4-yl]-2-oxo-oxazolidin-5-(S)-ylmethyl}-acetamide], under setting [1], the MIC came out at 0.25 µg/mL (≈ 0.529 µM). Consider `CNc1ncnc2c1ncn2Cc1ccc(-c2ccc(N3C[C@H](CNC(C)=O)OC3=O)cc2F)cc1` [Compound 1106, N-{3-[2-Fluoro-4′-(6-methylamino-purin-9-ylmethyl)-biphenyl-4-yl]-2-oxo-oxazolidin-5-(S)-ylmethyl}-acetamide], for which the MIC under setting [1] was found to be 1 µg/mL (≈ 2.04 µM).

For `CC(=O)NC[C@H]1CN(c2ccc(-c3ccc(CNC(=O)Cn4cc(CO)nn4)cc3)c(F)c2)C(=O)O1` [Compound 4240, N-{4′-[5-(S)-(Acetylamino-methyl)-2-oxo-oxazolidin-3-yl]-2′-fluoro-biphenyl-4-ylmethyl}-2-(4-hydroxymethyl-[1,2,3]triazol-1-yl)-acetamide], the MIC under setting [1] stood at 16 µg/mL (≈ 32.2 µM). Turning to `CC(=O)NC[C@H]1CN(c2ccc(-c3ccc(CNCc4cc(C)oc4C)cc3)c(F)c2)C(=O)O1` [Compound 4103, N-[3-(4′-{[(2,5-Dimethyl-furan-3-ylmethyl)-amino]-methyl}-2-fluoro-biphenyl-4-yl)-2-oxo-oxazolidin-5-(S)-ylmethyl]-acetamide], the MIC under setting [1] is 8 µg/mL (≈ 17.2 µM).

For `CC(=O)NC[C@H]1CN(c2ccc(-c3ccc(CNS(=O)(=O)c4cn(C)cn4)cc3)c(F)c2)C(=O)O1` [Compound 2043, N-(3-{2-Fluoro-4′-[(1-methyl-1H-imidazole-4-sulfonylamino)-methyl]-biphenyl-4-yl}-2-oxo-oxazolidin-5-(S)-ylmethyl)-acetamide], the MIC under setting [1] was determined as 2 µg/mL (≈ 3.99 µM). Regarding `CC(=O)NC[C@H]1CN(c2ccc(-c3ccc(Cc4nc(=O)o[nH]4)cc3)c(F)c2)C(=O)O1` [Compound 1016, N-{3-[2-Fluoro-4′-(5-(S)-oxo-2,5-(S)-dihydro-[1,2,4]oxadiazol-3-ylmethyl)-biphenyl-4-yl]-2-oxo-oxazolidin-5-(S)-ylmethyl}-acetamide], the MIC was found to be 4 µg/mL (≈ 9.38 µM).

Regarding `COc1cc(CNCc2ccncc2)ccc1-c1ccc(N2C[C@H](CNC(C)=O)OC2=O)cc1F` [Compound 4027, N-[3-(2-Fluoro-2′-methoxy-4′-{[(pyridin-4-ylmethyl)-amino]-methyl}-biphenyl-4-yl)-2-oxo-oxazolidin-5-(S)-ylmethyl]-acetamide], the MIC under setting [1] came out at 8 µg/mL (≈ 16.7 µM). As to `CC(=O)NC[C@H]1CN(c2ccc(-c3ccc(NC(=O)NCCc4ccccn4)cc3)c(F)c2)C(=O)O1` [Compound 6003, N-(3-{2-Fluoro-4′-[3-(2-pyridin-2-yl-ethyl)-ureido]-biphenyl-4-yl}-2-oxo-oxazolidin-5-(S)-ylmethyl)-acetamide], under setting [1], the MIC was found to be 2 µg/mL (≈ 4.07 µM). Same read-out and setting: next, `CC(=O)NC[C@H]1CN(c2ccc(-c3ccc(CNCc4ncc[nH]4)cc3)c(F)c2)C(=O)O1` [Compound 4091, N-[3-(2-Fluoro-4′-{[(1H-imidazol-2-ylmethyl)-amino]-methyl}-biphenyl-4-yl)-2-oxo-oxazolidin-5-(S)-ylmethyl]-acetamide]: 8 µg/mL (≈ 18.3 µM); `CC(=O)NC[C@H]1CN(c2ccc(-c3ccc(CNCc4ccc(Br)cn4)cc3)c(F)c2)C(=O)O1` [Compound 4182, N-[3-(4′-{[(5-Bromo-pyridin-2-ylmethyl)-amino]-methyl}-2-fluoro-biphenyl-4-yl)-2-oxo-oxazolidin-5-(S)-ylmethyl]-acetamide]: 2 µg/mL (≈ 3.79 µM); `CC(=O)NC[C@H]1CN(c2ccc(-c3ccc(CN4CCC(C(N)=O)C4)cc3)c(F)c2)C(=O)O1` (mixture of isomers) [Compound 1093, 1-{4′-[5-(S)-(Acetylamino-methyl)-2-oxo-oxazolidin-3-yl]-2′-fluoro-biphenyl-4-ylmethyl}-pyrrolidine-3-(R/S)-carboxylic acid amide]: 2 µg/mL.
